Assay results reported in US6476012B2, “Estradiol-16α-carboxylic acid esters as locally active estrogens” (Yale University, priority 2001, dated 2002).
Several values for one entry are separate records, joined by “and”; a condition that tells them apart may be missing. Identical values can stand only once. Counter-ions that a name gives are not always drawn.

How the values were obtained:
[1] = test system: alkaline phosphatase (AlkP) induction in Ishikawa cells; experiment: Estrogenic potency in Ishikawa cells: induction of AlkP; assay type: cell-based, human; settings: for Ishikawa Cell AlkP RSA (relative stimulatory activity): induction of AlkP, E2 = 100, ± S.D.
Protocol: Estrogenic Potency in Ishikawa Cells. The estrogenic potency of the E2-analogs was determined in a estrogen bioassay, the induction of AlkP in human endometrial adenocarcinoma cells (Ishikawa) grown in 96-well microtiter plates as we have previously described.^28 In short, the cells are grown in phenol red free medium with estrogen depleted (charcoal stripped) bovine serum in the presence or absence of varying amounts of the steroids. […] After 3 days, the cells are washed, frozen and thawed, and then incubated with 5 mM p-nitrophenyl phosphate, a chromogenic substrate for the AlkP enzyme, at pH 9.8. To ensure linear enzymatic analysis, the plates are monitored kinetically for the for the production of p-nitrophenol at 405 nm. The relative stimulatory activity is determined by analysis of the curve fitting program Prism. Each compound was analyzed in at least 3 separate experiments performed in duplicate.

[2] = target: T1, ER in rat uterine cytosol (ERα) (Rattus norvegicus, UniProt P06211); experiment: Competitive binding to the ER in rat uterine cytosol (RBA vs [3H]E2); settings: for ER RBA (relative binding affinity): rat uterine estrogen receptor assay, E2 = 100, ± S.D.; for binding to the ER / RBA: uterine cytosol (ERα); for RBA: relative to E2
T1 construct: The uterus was removed and homogenized in ice-cold TEGDMo buffer; from tissue; host or cells: uterine cytosol of castrated female Sprague Dawley rats
T1 sequence (P06211 1-600): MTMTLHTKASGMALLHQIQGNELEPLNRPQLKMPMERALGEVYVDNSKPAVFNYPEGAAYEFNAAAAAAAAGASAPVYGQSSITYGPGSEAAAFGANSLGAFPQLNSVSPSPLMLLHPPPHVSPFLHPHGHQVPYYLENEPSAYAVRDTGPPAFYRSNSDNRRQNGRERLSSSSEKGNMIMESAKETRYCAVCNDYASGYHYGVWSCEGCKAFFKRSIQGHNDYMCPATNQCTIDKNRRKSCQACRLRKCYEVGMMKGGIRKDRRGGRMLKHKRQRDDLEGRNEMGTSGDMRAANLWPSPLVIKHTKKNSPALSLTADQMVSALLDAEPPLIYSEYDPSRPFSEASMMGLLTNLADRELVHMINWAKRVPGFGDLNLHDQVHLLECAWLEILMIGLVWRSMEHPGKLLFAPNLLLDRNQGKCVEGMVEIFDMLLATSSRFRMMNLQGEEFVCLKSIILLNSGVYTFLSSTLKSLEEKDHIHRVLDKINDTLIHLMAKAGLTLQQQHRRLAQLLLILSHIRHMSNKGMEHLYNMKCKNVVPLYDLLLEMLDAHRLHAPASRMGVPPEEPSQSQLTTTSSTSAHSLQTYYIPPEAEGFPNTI
Protocol: Competitive Binding to the Estrogen Receptor ERα and ERβ. […] The ER in uterine cytosol is ERα the classical form of the ER.^38 Female Sprague Dawley rats were castrated and sacrificed 24 h later. The uterus was removed and homogenized in ice-cold TEGDMo buffer (10 mM Tris, 1.5 mM Na2-EDTA, 10% (v/v) glycerol, 1.0 mM dithiothreitol, 25 mM sodium molybdate, pH 7.4 at 4° C.). and centrifuged at 105,000 g for 45 min at 4° C. The supernatant (cytosol) was frozen on dry ice and stored at −80° C. until assay. […] Incubations were carried out on ice overnight and bound radioactivity was separated from free by adsorption with dextran coated charcoal and quantified by counting.^26 Relative Binding Affinity (RBA) was determined by analysis of the displacement curves by the curve-fitting program Prism (Graph-Pad Software inc., San Diego, Calif.). The results shown in Table 1. below, are from at least 3 separate experiments performed in duplicate.

[3] = test system: human ERβ and ERα; experiment: Competitive binding to human ERβ and ERα expressed in Escherichia coli lysates (ratio of RBAs); settings: RBAs (E2 = 100) in E. coli lysates expressing human ERβ and ERα separately
[4] = test system: esterase(s) in rat hepatic microsomes; experiment: Esterase assay with rat hepatic microsomes; assay type: in vitro ADME; settings: rat hepatic microsomes, E16-1,2 = 100; ± S.D.
Protocol: Esterase. Esterase activity was measured in rat hepatic microsomes essentially using the conditions described.^39 Liver obtained from Sprague-Dawley rats was washed with phosphate buffered saline and homogenized in 3 volumes of cold 0.25 M sucrose and centrifuged at 700 g for 10 min and then at 10,000 g for 20 min. The resulting supernatant was centrifuged at 105,000 g for 60 min. The pellet was suspended in 0.1 M phosphate buffer pH 7.4 and washed by centrifugation at 105,000 g for 60 min. The washed pellet was suspended in 0.1 M Tris-HCl pH 8.0 at a concentration of ˜13 mg protein/ml and frozen at −80° C. For assay, the pellets were thawed and diluted with the same buffer. The incubation mixture consisted of the microsomal enzyme preparation, 0.28 mg protein/ml, E2-16α-alkyl esters, 50 μM, added in 10 μL of ethanol, all in a final volume of 1 mL of Tris buffer pH 8.0. Since the rates of reaction are widely different for the various esters, the incubation times were varied accordingly to obtain linear kinetics. At several appropriate time points, 100 μL aliquots were withdrawn and the reaction was quenched with 33 μL CH3CN, followed by a 33 μL of a solution of THF containing 1 […] of the internal standard, 6-ketoestradiol. The quenched aliquot was centrifuged for several minutes on bench-top centrifuge and 80 μl of the supernatant was analyzed for the esterase-hydrolysis product (the corresponding E2-16α-carboxylic acid: E16-1,0 8; E16-2,0 23; E16-3,0 35) by reversed phase HPLC with system H-10 for E2-16-1 and E2-16-2 esters, and with system H-15 for E2-16-3 esters. The E2-16α-carboxyl products, (Rt for E16-1,0 8=7 min and for E16-2,0 23=9 min, E16-3,0 35=6.5 min) and the internal standard, 6-ketoestradiol (Rt 7.5 min in system H-10, and 5 min in system H-15) were quantified at 280 nm on the HPLC UV detector. The UV absorbance was converted to moles of product by comparison to standard curves and corrected for recovery of the internal standard, 6-ketoestradiol. The velocity of the reaction for each ester, in nmol product/min/ml/ was then normalized to the ester, E16-1,2 10 and is shown in Table 1 as relative hydrolytic activity (RHA). The enzymatic velocity for the hydrolysis of E16-1,2 10 was 0.9±0.2 (S.D.) nmol product/min/ml over the various experiments. Since all of the esters could not be tested simultaneously, in each case we compared the rate of hydrolysis of the test compound to that of E16-1,2 10 run concurrently. All compounds were tested in triplicate in 3 separate experiments.

| SMILES | ER RBA (relative binding affinity) [2] | RBA [2] [%] | Esterase RHA (relative hydrolytic activity) [4] | RSA (estrogenic potency compared to E2) ([1]; Ishikawa AlkP) [%] | Ishikawa Cell AlkP RSA (relative stimulatory activity) [1] | binding to the ER [2] | ERα/ERβ (ratio of the RBAs) [3] |
| --- | --- | --- | --- | --- | --- | --- | --- |
| C[C@]12CC[C@@H]3c4ccc(O)cc4CC[C@H]3[C@@H]1CCC2=O [Compound E1, estrone, reference compound] | – | – | – | 7 | 7 ± 2 | – | – |
| C[C@]12CC[C@@H]3c4ccc(O)cc4CC[C@H]3[C@@H]1C[C@@H](C(=O)O)[C@@H]2O [E16-1,0, 3,17β-dihydroxyestra-1,3,5(10)-trien-16α-carboxylic acid] | 0 | – | – | – | 0 | None of the parent carboxylic acid analogs, E16-1,0, E16-2,0 and E16-3,0 showed significant binding | – |
| C[C@]12CC[C@@H]3c4ccc(O)cc4CC[C@H]3[C@@H]1C[C@@H](C(=O)OCC(F)F)[C@@H]2O [E16-1,2F2, 2′,2′-Difluoroethyl (3,17β-dihydroxyestra-1,3,5(10)-trien-16α-yl) formate] | 10 ± 3 | 10 | 2,350 ± 275 | – | 4 ± 1 | – | 1,800 |
| C[C@]12CC[C@@H]3c4ccc(O)cc4CC[C@H]3[C@@H]1C[C@@H](CC(=O)O)[C@@H]2O [E16-2,0, 3,17β-Dihydroxyestra-1,3,5(10)-trien-16α-yl acetic acid] | 0 | – | – | – | 0 | None of the parent carboxylic acid analogs, E16-1,0, E16-2,0 and E16-3,0 showed significant binding | – |
| COC(=O)CC[C@@H]1C[C@H]2[C@@H]3CCc4cc(O)ccc4[C@H]3CC[C@]2(C)[C@H]1O [E16-3,1, Methyl 3-(3,17β-dihydroxyestra-1,3,5(10)-trien-16α-yl)propanoate] | 1 ± 1 | 1 | 910 ± 100 | – | 0 | – | – |

Now from value to compound, other results behind:

| ER RBA (relative binding affinity) [2] | RBA [2] [%] | Esterase RHA (relative hydrolytic activity) [4] | SMILES | RSA (estrogenic potency compared to E2) ([1]; Ishikawa AlkP) [%] | Ishikawa Cell AlkP RSA (relative stimulatory activity) [1] | binding to the ER [2] | ERα/ERβ (ratio of the RBAs) [3] |
| --- | --- | --- | --- | --- | --- | --- | --- |
| 7 ± 1 | 7 | 8,200 ± 1,800 | C[C@]12CC[C@@H]3c4ccc(O)cc4CC[C@H]3[C@@H]1C[C@@H](C(=O)OCC(F)(F)F)[C@@H]2O [E16-1,2F3, 2′,2′,2′-Trifluoroethyl (3,17β-dihydroxyestra-1,3,5(10)-trien-16α-yl) formate] | – | 3 ± 1 | – | – |
| 34 ± 9 | – | 230 and 230 ± 50 | CCCOC(=O)[C@@H]1C[C@H]2[C@@H]3CCc4cc(O)ccc4[C@H]3CC[C@]2(C)[C@H]1O [E16-1,3, Propyl (3,17β-dihydroxyestra-1,3,5(10)-trien-16α-yl) formate] | – | 2 ± 0 | – | – |
| 7 ± 4 | 7 | 140 and 140 ± 10 | CC(C)OC(=O)[C@@H]1C[C@H]2[C@@H]3CCc4cc(O)ccc4[C@H]3CC[C@]2(C)[C@H]1O [E16-1,3i, Isopropyl (3,17β-dihydroxyestra-1,3,5(10)-trien-16α-yl) formate] | – | 0.1 ± 0.06 | – | – |
| 28 ± 17 | 28 | 350 ± 50 | CCCCOC(=O)[C@@H]1C[C@H]2[C@@H]3CCc4cc(O)ccc4[C@H]3CC[C@]2(C)[C@H]1O [E16-1,4, n-Butyl (3,17β-dihydroxyestra-1,3,5(10)-trien-16α-yl) formate] | – | 1 ± 0 | – | – |
| 14 ± 3 | 7 | 50 and 50 ± 5 | CC(C)(C)COC(=O)[C@@H]1C[C@H]2[C@@H]3CCc4cc(O)ccc4[C@H]3CC[C@]2(C)[C@H]1O [E16-1,5neo] | – | 1 ± 0.6 | – | – |
| 5 ± 2 | 5 | 340 ± 30 | COC(=O)C[C@@H]1C[C@H]2[C@@H]3CCc4cc(O)ccc4[C@H]3CC[C@]2(C)[C@H]1O [E16-2,1, Methyl 3,17β-dihydroxyestra-1,3,5(10)-trien-16α-yl acetate] | – | 0.5 ± 0.1 | – | – |
| 5 ± 1 | 5 | 700 ± 120 | CCOC(=O)C[C@@H]1C[C@H]2[C@@H]3CCc4cc(O)ccc4[C@H]3CC[C@]2(C)[C@H]1O [E16-2,2, Ethyl (3,17β-dihydroxyestra-1,3,5(10)-trien-16α-yl) acetate] | – | 0.3 ± 0.1 | – | – |
| 0.1 ± 0.1 | – | – | C[C@]12CC[C@@H]3c4ccc(O)cc4CC[C@H]3[C@@H]1C[C@@H](CCC(=O)O)[C@@H]2O [E16-3,0, 3-(3,17β-dihydroxyestra-1,3,5(10)-trien-16α-yl)propanioc acid] | – | 0 | None of the parent carboxylic acid analogs, E16-1,0, E16-2,0 and E16-3,0 showed significant binding | – |
